Test results reported in patent US12465614B2, “Budesonide 21-phosphate salts and pharmaceutical compositions containing the same” (GENETIC S.P.A., priority 2020, dated 2025).
Entries after “also recorded” stand apart in the source; their conditions may differ.

Assays:
Type in all cases: in vivo
[1] = test system: mice with OVA-induced allergic asthma; test: Lung hyperreactivity/Penh function, intra-nasal Bud vs Bud-21 P (Experimental Groups III); conditions: for Penh maximal response (Emax) / area under the Penh-metacholine concentration curve (AUC): 4 weeks
Procedure: Male Balb/c SPF mice (25*2 g, 6-week-old) were purchased from the animal house facilities at the São Paulo School of Medicine (Federal University of São Paulo, Brazil). They were group-housed in a temperature-controlled room at 22° C. with a 12/12-hour light/dark cycle and allowed free access to food and water. The study is in agreement with the Ethical Principles for Animal Research established by the Brazilian College for Animal Experimentation (COBEA). According to the internal laboratory rules, euthanasia is performed if severe distress related to the test agents developed during the experiment. In Protocol 3, the test compounds budesonide (Bud; MW: 430.53 g/mol) and budesonide 21-phosphate free acid (Bud-21 P; […] The compounds were dissolved in 10% sterile saline+90% DMSO (Sigma Chemical Co., St. Louis, MO) at the correspondent concentrations at which the above mentioned doses per animal result from the intra-nasal (i.n.) administration of 10 μl/animal (5 μl/nostril) of each of the solutions. Mice were sensitized with two subcutaneous injections of 0.4 ml of OVA/Al(OH)3, with an interval of 7 days (Sham animals received the Al(OH)3 suspension in PBS with no OVA). Seven days after the second sensitization (i.e., 3rd week), the animals were nebulized twice a week with the 1% OVA solution (Sham and untreated OVA groups were nebulized with PBS) during 20 minutes for the next 2 weeks. Sixty minutes before the challenges (OVA nebulization) and daily during the next 4 weeks, mice were intra-nasally treated (10 μl/animal as 5 μl/nostril) with the respective compounds/vehicle. Airway responsiveness in conscious, spontaneously breathing animals was measured at the end of the 4th week (i.e., after 2 weeks of OVA challenges+treatments), 24 h after the last OVA/PBS challenge via whole body plethysmography (Buxco Europe Ltd, Winchester, UK), as previously described. Experiments were carried out in a quiet room by an investigator who was unaware of the nature of treatments. Aerosolized saline (50 μl/mouse during 60 s) and then the muscarinic agonist metacholine (MCh) at increasing concentrations (3.12, 6.25, 12.5 and 25.0 mg/ml in PBS) was nebulized through an inlet of the main chamber for 3 min each to induce bronchoconstriction and readings were taken and averaged for 6 min following each nebulization. After 20 min, the baseline values usually returned at the end of this period. Enhanced pause (Penh) was measured as an indicator of bronchoconstriction and consequent increase of airway resistances: Penh=[(expiration time/relaxation time)−1][…](maximum expiration flow/maximum inspiration flow)

[2] = test system: mice with OVA-induced allergic asthma; test: Circulating leukocyte cell counts (Experimental Groups II); conditions: i.n.; FB all tested doses (0.3, 1.0, 3.0 nmol/animal); B and F 3 nmol/animal
Procedure: Male Balb/c SPF mice (25*2 g, 6-week-old) were purchased from the animal house facilities at the São Paulo School of Medicine (Federal University of São Paulo, Brazil). They were group-housed in a temperature-controlled room at 22° C. with a 12/12-hour light/dark cycle and allowed free access to food and water. The study is in agreement with the Ethical Principles for Animal Research established by the Brazilian College for Animal Experimentation (COBEA). According to the internal laboratory rules, euthanasia is performed if severe distress related to the test agents developed during the experiment. […] The compounds were dissolved in DMSO (Sigma Chemical Co., St. Louis, MO) at concentrations at which the determined dose per animal results from the intraperitoneal administration of 100 μl of solution (1:10 DMSO) and intra-nasal (i.n.) administration of 10 μl/animal (5 μl/nostril) of the solutions. Mice were sensitized with two subcutaneous injections of 0.4 ml of OVA/Al(OH)3, with an interval of 7 days (Sham animals received the Al(OH)3 suspension in PBS with no OVA). Seven days after the second sensitization (i.e., 3rd week), the animals were nebulized twice a week with the 1% OVA solution (Sham and untreated OVA groups were nebulized with PBS) during 20 minutes for the next 2 weeks. Sixty minutes before the challenges (OVA nebulization) and daily during the next 4 weeks, mice were intra-nasally treated (10 μl/animal as 5 μl/nostril) with the respective compounds/vehicle. After Penh evaluation, the mice were anesthetized with inhaled isofluorane (5% v/v in O2) and blood samples were collected from the descending abdominal aorta. The mice were then euthanized by exsanguination (blood samples were collected from each animal for leukocyte cell counting), and bronchoalveolar lavage (BAL) was performed by exposing and cannulating the trachea with a polyethylene tube (1 mm outer diameter) connected to a syringe. The lungs were washed by flushing 300 μL of heparin-containing PBS solution (20 Ul/mL). The retrieved BAL lavage aliquots were obtained, and the same procedure was repeated four additional times. The samples were submitted to centrifugation (1000 g for 10 min) and the cell pellet was resuspended in 200 μL of PBS solution. Total cell counts were determined using a Neubauer chamber, and differential counting was carried out in cytospin (Fanem Mod 2400; São Paulo, Brazil) preparations stained with May-Grünwald dye. Leukocytes were classified based on normal morphological criteria.

[3] = test system: mice with OVA-induced allergic asthma; test: Lung hyperreactivity/Penh function, whole body plethysmography, intra-nasal FB, F, B (Experimental Groups II); conditions: i.n. daily 2 weeks, all tested doses: FB 0.3, 1.0, 3.0 nmol/animal, vs untreated OVA group
[4] = highest dose 30 nmol/animal/day i.n.
[5] = all tested doses (3, 10 and 30 nmol/animal/day) i.n.

Compound	beneficial effect on bronchoconstriction response to methacholine (Penh function) ([1]; 3 and 10 nmol/animal/day i.n.)	Penh maximal response (Emax) [1, 4]	area under the Penh-metacholine concentration curve (AUC) [1, 4]	Penh maximal response (Emax) [1, 5]	area under the Penh-metacholine concentration curve (AUC) [1, 5]	circulating macrophages [2]	area under the Penh-metacholine concentration curve (AUC) ([3]; B 3.0 nmol/animal)	Penh maximal response Emax to inhaled metacholine ([3]; F and B 3.0 nmol/animal)
CCCC1OC2CC3C4CCC5=CC(=O)C=CC5(C)C4C(O)CC3(C)C2(C(=O)CO)O1 (stereo not drawn) [Bud, 11β,21-dihydroxy-16α,17α-(butylidenebis(oxy))pregna-1,4-diene-3.20-dione]	absent	significant reduction of this response just at the highest dose	significant reduction of this response just at the highest dose					
CCCC1OC2CC3C4CCC5=CC(=O)C=CC5(C)C4C(O)CC3(C)C2(C(=O)COP(=O)(O)O)O1 (centres unmarked) [B, Budesonide 21-phosphate]				significantly reduced	significantly reduced	significantly reduced the number of macrophages; also recorded: mild decrease of circulating macrophages	showed no effect	showed no effect
